Data taken from PMC11659602, “Discovering covalent cyclic peptide inhibitors of peptidyl arginine deiminase 4 (PADI4) using mRNA-display with a genetically encoded electrophilic warhead” (Communications Chemistry, 2024).
Entries after “also recorded” stand apart in the source; their conditions may differ. Like-named read-outs stand apart in the source and are kept apart here. Where a SMILES comes first, the peptide text is derived from it. Bridges are numbered along the chain shown (N, C = ends). [ ]: non-standard residue; d: D form. Orn(fluoroacetimidoyl) = N=C(CF)NCCC[C@H](N)C(=O)O

Experiments:
PADI4 [1] = molecular target: T1, PADI4 (Homo sapiens, UniProt Q9UM07); assay: COLDER inhibition assay, BAEE substrate, with or without 1 h preincubation; assay type: biochemical; settings: for remaining activity at 0.003 µM: peptide 0.003 µM; for remaining activity at 0.01 µM: peptide 0.01 µM; for remaining activity at 3 µM: peptide 3 µM; for remaining activity at 30 µM: peptide 30 µM
T1 construct: His6; made in house
Outline: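 50 nM His-PADI4 with peptide (final 0.1× the 0.03-500 µM series), 0.6 mg/mL BSA, 10 mM CaCl2 in 50 mM HEPES, 150 mM NaCl, 2 mM DTT, pH 7.5, with or without 1 h preincubation before 10 mM BAEE. After 30 min at rt, EDTA-quenched; citrulline read colorimetrically at 540 nm; mean ± SEM, ≥2 replicates.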

PADI4 C645A = molecular target: T2, PADI4 C645A (Homo sapiens, UniProt Q9UM07, C645A); assay: Intact mass spectrometry of covalent labelling; assay type: binding; settings: 20 µM protein, 200 µM peptide, 1 hour at rt
T2 construct: PADI4 (residues 1-663); made in house; host or cells: E. coli NiCo21(DE3)

PADI4 [2] = molecular target: T1, PADI4; assay: Surface plasmon resonance (SPR), single cycle kinetics; assay type: binding
Outline: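 Biotinylated His-PADI4 captured on CAP chip (~3000 RU); peptides as 5-point 3-fold series in HEPES, 150 mM NaCl, 10 mM CaCl2, 0.1% DMSO, pH 7.5, triplicate. Warhead peptides fitted two-state (k-2 = 0; Ki = k-1/k+1, kinact = k+2); others 1:1.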

PADI4 [3] = molecular target: T1, PADI4; assay: Intact mass spectrometry of covalent labelling; assay type: binding; settings: 20 µM PADI4, 200 µM peptide, 1 hour at rt
PADI4 [4] = settings: cited from earlier work
[5] = 1 h, T=1 (1 h preincubation), read-out: PADI4 activity, dose-response data of Figure S15 (individual replicates)
[6] = T=0 (no preincubation), read-out: PADI4 activity, dose-response data of Figure S15 (individual replicates)

T1 sequence (Q9UM07 whole entry): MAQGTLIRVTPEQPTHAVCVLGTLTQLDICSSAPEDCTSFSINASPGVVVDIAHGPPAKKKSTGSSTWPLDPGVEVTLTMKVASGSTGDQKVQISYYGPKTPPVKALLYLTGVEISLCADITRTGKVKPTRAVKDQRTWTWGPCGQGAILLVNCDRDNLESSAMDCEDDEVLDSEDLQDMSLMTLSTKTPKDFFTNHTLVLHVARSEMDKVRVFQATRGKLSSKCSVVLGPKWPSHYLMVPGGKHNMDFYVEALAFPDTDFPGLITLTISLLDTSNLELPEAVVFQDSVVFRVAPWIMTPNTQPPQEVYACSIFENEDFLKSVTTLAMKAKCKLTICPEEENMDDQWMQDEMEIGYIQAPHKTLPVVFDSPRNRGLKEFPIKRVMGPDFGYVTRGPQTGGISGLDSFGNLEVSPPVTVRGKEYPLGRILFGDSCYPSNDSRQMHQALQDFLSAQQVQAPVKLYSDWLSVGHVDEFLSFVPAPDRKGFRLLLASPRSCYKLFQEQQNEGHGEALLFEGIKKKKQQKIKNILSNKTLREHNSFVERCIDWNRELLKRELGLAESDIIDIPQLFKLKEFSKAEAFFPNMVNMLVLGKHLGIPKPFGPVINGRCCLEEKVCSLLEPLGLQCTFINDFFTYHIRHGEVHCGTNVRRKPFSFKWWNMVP
T2 sequence (Q9UM07 whole entry C645A, the tested form may be a part): as the sequence (Q9UM07 whole entry) above, with C645A counted along it

Q: Which remaining activity at 0.003 µM (PADI4 [1]; [5]) does the source give for CC[C@H](C)[C@@H]1NC(=O)[C@@H](Cc2ccc(O)cc2)NC(=O)CSC[C@@H](C(=O)NCC(N)=O)NC(=O)[C@H]([C@@H](C)O)NC(=O)[C@H](C(C)C)NC(=O)[C@H](CC(=O)O)NC(=O)[C@H](CCCNC(=N)CF)NC(=O)[C@H](CC(C)C)NC(=O)[C@H](CC(=O)O)NC(=O)[C@H](Cc2c[nH]c3ccccc23)NC1=O [cP4_13] ({CH2CO}-[dY]IWDL[Orn(fluoroacetimidoyl)]DVTCG-NH2; thioether N-10) here?
A: Its remaining activity at 0.003 µM is 108%.

Q: And the remaining activity at 0.01 µM (PADI4 [1]; [5])?
A: Its remaining activity at 0.01 µM is 111%.

Q: And the remaining activity at 3 µM (PADI4 [1]; [5])?
A: Its remaining activity at 3 µM is 87.4%.

Q: And the remaining activity at 30 µM (PADI4 [1]; [5])?
A: The remaining activity at 30 µM was 21.7%.

Q: What about the “inhibition of PADI4 activity” value (PADI4 [1]; COLDER, in words) of the same compound?
A: Its value is “Neither peptide had strong inhibitory activity”.

Q: And the remaining activity at 0.003 µM (PADI4 [1]; [6])?
A: The remaining activity at 0.003 µM was 103%.

Q: And the remaining activity at 0.01 µM (PADI4 [1]; [6])?
A: Its remaining activity at 0.01 µM is 104%.

Q: And the remaining activity at 0.03 µM (PADI4 [1]; T=0 (no preincubation), peptide 0.03 µM, read-out: PADI4 activity, dose-response data of Figure S15 (individual replicates))?
A: The remaining activity at 0.03 µM was 101%.

Q: What about the remaining activity at 0.1 µM (PADI4 [1]; T=0 (no preincubation), peptide 0.1 µM, read-out: PADI4 activity, dose-response data of Figure S15 (individual replicates)) of the same compound?
A: Its remaining activity at 0.1 µM is 105%.

Q: And the remaining activity at 0.3 µM (PADI4 [1]; T=0 (no preincubation), peptide 0.3 µM, read-out: PADI4 activity, dose-response data of Figure S15 (individual replicates))?
A: The remaining activity at 0.3 µM was 105%.

Q: And the remaining activity at 1 µM (PADI4 [1]; T=0 (no preincubation), peptide 1 µM, read-out: PADI4 activity, dose-response data of Figure S15 (individual replicates))?
A: The remaining activity at 1 µM was 102%.

Q: And the remaining activity at 3 µM (PADI4 [1]; [6])?
A: Its remaining activity at 3 µM is 101%.

Q: What about the remaining activity at 10 µM (PADI4 [1]; T=0 (no preincubation), peptide 10 µM, read-out: PADI4 activity, dose-response data of Figure S15 (individual replicates)) of the same compound?
A: Its remaining activity at 10 µM is 96.7%.

Q: What about the remaining activity at 30 µM (PADI4 [1]; [6]) of the same compound?
A: The remaining activity at 30 µM was 86.3%.

Q: What about the “covalent labelling of PADI4 C645A by intact MS” value (PADI4 C645A) of the same compound?
A: The value was “no labelling”.

Q: What about the k2 / kinact (PADI4 [2]; each replicate) of the same compound?
A: The k2 / kinact was 0.0029 s⁻¹.

Q: And the k-1 (PADI4 [2]; each replicate)?
A: The k-1 was 0.00088 s⁻¹.

Q: And the kinact (PADI4 [2]; each replicate, read-out: k2 / kinact)?
A: The kinact was 0.0025 s⁻¹.

Q: What about the “binding to PADI4 by SPR” value (PADI4 [2]; in words) of the same compound?
A: The value was “among some of the poorest binders”.

Q: What about the kinact (PADI4 [2]; two-state reaction model, k+2, read-out: SPR kinact (converted)) of the same compound?
A: The kinact was 0.00267 s⁻¹.

Q: What about the Ki (PADI4 [2]; two-state reaction model, k-1/k+1) of the same compound?
A: Its Ki is 4.3 ± 3.1 µM.

Q: What about the “covalent labelling of PADI4 by intact MS” value (PADI4 [3]) of the same compound?
A: The value was “single; also recorded: covalently bind to C645 of PADI4”.

Q: Which “selectivity for PADI4 over PADI1” value (PADI4 [4]) does the source give for N=C(CF)NCCC[C@H](NC(=O)c1ccccc1)C(N)=O [Fluoroamidine] here?
A: Its value is “limited selectivity”.
